In article PMC2360244 (British Journal of Cancer, 2007):
Like-named read-outs stand apart in the source and are kept apart here.

How the values were obtained:
[1] = test system: HDAC isotypes in partially purified extract from rat liver (MAL, unselective); details: read-out: Liver extract MAL unselective IC50, substrate MAL
Description: (§1) After centrifugation, the cleared extract was used for immunoprecipitation of HDAC1. […] Incubation was performed for 45 min at 37°C (immunoprecipitates) or 30 min at room temperature (HeLa nuclear extract). Before addition of substrate, HDAC inhibitors were added at increasing concentrations and preincubated for 10 min at room temperature. After incubation, the reaction was quenched with 35 μl stop buffer (1 M HCl and 0.4 M acetic acid). Released [^3H]acetic acid was extracted with 800 μl ethyl acetate and quantified by scintillation counting. Equal amounts of HDAC1 were immunoprecipitated as indicated by western blot analysis. Histone deacetylase 1 activity results are presented as mean±s.d. of three independent experiments on a single lysate. […] Finally, we measured the activities of different HDAC isotypes present in partially purified extract from rat liver using the fluorescent HDAC substrates MAL (unselective), B61 (selective for HDAC1, and to some extent also converted by HDAC3) and B12 (selective for HDAC6).

[2] = target: T1, HDAC6 (Rattus norvegicus, UniProt A0A8I6GM68); assay: biochemical; assay type: biochemical
T1 construct: partially purified extract from rat liver; from tissue; host or cells: rat liver, partially purified extract
T1 sequence (A0A8I6GM68 whole entry): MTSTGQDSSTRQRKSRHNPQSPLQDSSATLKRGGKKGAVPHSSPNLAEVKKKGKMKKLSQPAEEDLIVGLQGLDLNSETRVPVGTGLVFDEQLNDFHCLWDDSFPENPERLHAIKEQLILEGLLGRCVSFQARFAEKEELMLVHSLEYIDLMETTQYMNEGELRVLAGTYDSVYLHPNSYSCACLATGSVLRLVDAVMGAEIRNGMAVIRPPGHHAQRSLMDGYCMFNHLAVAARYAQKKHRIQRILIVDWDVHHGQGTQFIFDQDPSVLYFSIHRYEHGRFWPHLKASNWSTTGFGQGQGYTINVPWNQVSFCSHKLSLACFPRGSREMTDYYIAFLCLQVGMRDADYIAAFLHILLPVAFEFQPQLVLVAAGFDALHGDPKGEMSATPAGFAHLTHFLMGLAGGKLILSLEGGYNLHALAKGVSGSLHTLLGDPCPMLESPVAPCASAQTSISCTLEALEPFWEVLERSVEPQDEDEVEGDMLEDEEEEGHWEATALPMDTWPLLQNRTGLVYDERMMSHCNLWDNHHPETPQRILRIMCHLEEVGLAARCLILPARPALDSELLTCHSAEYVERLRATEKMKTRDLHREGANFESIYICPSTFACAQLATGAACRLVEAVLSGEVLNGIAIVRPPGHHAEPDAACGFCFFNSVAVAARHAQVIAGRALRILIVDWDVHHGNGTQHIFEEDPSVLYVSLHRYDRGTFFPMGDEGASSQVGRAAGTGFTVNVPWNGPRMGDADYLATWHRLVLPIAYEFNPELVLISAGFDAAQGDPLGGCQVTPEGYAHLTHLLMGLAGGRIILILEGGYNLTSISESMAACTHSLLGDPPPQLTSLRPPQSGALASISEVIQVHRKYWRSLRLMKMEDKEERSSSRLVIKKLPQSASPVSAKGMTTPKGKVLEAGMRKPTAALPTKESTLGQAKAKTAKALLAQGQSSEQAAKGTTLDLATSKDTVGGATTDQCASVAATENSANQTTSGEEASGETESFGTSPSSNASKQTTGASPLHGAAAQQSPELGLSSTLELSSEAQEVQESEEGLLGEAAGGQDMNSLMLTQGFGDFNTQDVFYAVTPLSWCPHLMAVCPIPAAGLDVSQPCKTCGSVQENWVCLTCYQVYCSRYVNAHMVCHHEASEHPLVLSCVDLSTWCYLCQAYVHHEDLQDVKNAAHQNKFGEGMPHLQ
Description: as §1

[3] = test system: A2780 ovarian carcinoma cells; assay: A2780 tumour cell proliferation, MTT colorimetric assay; assay type: cell-based, human; details: 4 days, mean±s.d.
Description: Control cells were treated with the combined respective vehicle.

[4] = test system: H3 acetylation and p21waf1,cip1 in A2780 ovarian carcinoma cells; assay: Western blot of acetylated H3 and p21waf1,cip1 in A2780 cells (class I HDAC readout); assay type: cell-based, human; details: 24 h, western blot
Description: (§2) Human A2780 ovarian carcinoma cells were incubated with the indicated concentrations of HDAC inhibitors. Total cell lysates were prepared and analysed by SDS–PAGE. […] To control for equal loading, blots were stripped and re-probed with mouse monoclonal antiactin IgM (Ab-1, Oncogene Research products, Merck, Darmstadt, Germany). […] Protein–antibody complexes were then visualised by chemiluminescence (Pierce Chemical Co., Perbioscience, Erembodegem, Belgium) or fluorescence (Odyssey) according to manufacturer's instructions.
(§3) Total cell lysates were prepared and analysed by SDS–PAGE. Levels of acetylated H3 and tubulin, and of total levels of H3 and tubulin and of p21^waf1, cip1 and Hsp70 and c-raf protein, were detected using rabbit polyclonal and mouse monoclonal antibodies, followed by ECL detection as indicated in the Methods section. To control for equal loading, blots were stripped and re-probed with antibodies against actin and the nuclear protein Lamin B1. A representative experiment out of three is shown.

[5] = test system: tubulin acetylation and Hsp70 in A2780 ovarian carcinoma cells; assay: Western blot of acetylated tubulin and Hsp70 in A2780 cells (HDAC6 readout); assay type: cell-based, human; details: for concentration at which tubulin acetylation (and Hsp70 induction) is evident: western blot
Description: as §2, §3

[6] = target: HDAC1 (Rattus norvegicus, UniProt Q4QQW4); assay type: biochemical
HDAC1, sequence (Q4QQW4 whole entry): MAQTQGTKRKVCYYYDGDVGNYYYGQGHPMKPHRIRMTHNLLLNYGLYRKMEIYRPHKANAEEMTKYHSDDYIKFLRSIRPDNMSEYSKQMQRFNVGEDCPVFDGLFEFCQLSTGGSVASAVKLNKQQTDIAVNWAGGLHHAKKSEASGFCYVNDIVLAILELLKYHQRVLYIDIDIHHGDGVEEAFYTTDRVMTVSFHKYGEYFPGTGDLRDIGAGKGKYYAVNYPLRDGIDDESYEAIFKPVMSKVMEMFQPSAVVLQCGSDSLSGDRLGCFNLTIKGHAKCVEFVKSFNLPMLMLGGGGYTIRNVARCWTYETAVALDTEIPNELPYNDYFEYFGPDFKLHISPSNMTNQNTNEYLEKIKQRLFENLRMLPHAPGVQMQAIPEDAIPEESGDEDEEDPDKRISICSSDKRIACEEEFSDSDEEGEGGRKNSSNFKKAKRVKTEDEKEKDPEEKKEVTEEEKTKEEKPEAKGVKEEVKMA
Description: After centrifugation, the cleared extract was used for immunoprecipitation of HDAC1. […] (Amersham Pharmacia Biotech, Piscataway, NJ, USA) in a total volume of 50 μl enzyme assay buffer (25 mM HEPES (pH 7.4), 1 M sucrose, 0.1 mg ml^−1 BSA and 0.01% (v v^−1) Triton X-100). Incubation was performed for 45 min at 37°C (immunoprecipitates) or 30 min at room temperature (HeLa nuclear extract). Before addition of substrate, HDAC inhibitors were added at increasing concentrations and preincubated for 10 min at room temperature. After incubation, the reaction was quenched with 35 μl stop buffer (1 M HCl and 0.4 M acetic acid). Released [^3H]acetic acid was extracted with 800 μl ethyl acetate and quantified by scintillation counting. Equal amounts of HDAC1 were immunoprecipitated as indicated by western blot analysis. Histone deacetylase 1 activity results are presented as mean±s.d. of three independent experiments on a single lysate. […] Finally, we measured the activities of different HDAC isotypes present in partially purified extract from rat liver using the fluorescent HDAC substrates MAL (unselective), B61 (selective for HDAC1, and to some extent also converted by HDAC3) and B12 (selective for HDAC6).

| Compound | IC50 [1] [nM] | IC50 [3] [nM] | concentration at which H3 acetylation is induced [4] [nM] | concentration at which tubulin acetylation (and Hsp70 induction) is evident ([5]; 24 h) [nM] | further results |
| --- | --- | --- | --- | --- | --- |
| CC(/C=C/C(=O)NO)=C\[C@@H](C)C(=O)c1ccc(N(C)C)cc1 [TSA, Trichostatin A] | 12 ± 1.2 | 23 ± 8 | 300 | 300 | IC50 ([2]; read-out: Liver extract B12 HDAC6 IC50): 20.7 ± 2.6 nM |
| Cc1[nH]c2ccccc2c1CCNCc1ccc(/C=C/C(=O)NO)cc1 [Panobinostat] | 75 ± 4 |  | 100 | 100 | IC50 [2]: 89 ± 12 nM; substrate preference B61 (HDAC1/HDAC3) vs B12 (HDAC6) ([2]; rat liver HDAC preparation): equipotent activity towards both substrates; IC50 ([3]; Homo sapiens, A2780, 96 h): 4.6 ± 1.8 nM |
| Nc1ccccc1NC(=O)c1ccc(CNC(=O)OCc2cccnc2)cc1 [MS-275] |  | 376 ± 169 | 3000 |  | Liver extract B61 HDAC1 IC50 ([6]; rat liver extract, substrate B61): Inactive; Liver extract B12 HDAC6 IC50 ([2]; rat liver extract, substrate B12): Inactive; effect on tubulin acetylation or Hsp70 levels ([5]; 3 μM, 24 h): did not affect tubulin acetylation or Hsp70 levels |
| O=C(CCCCCCC(=O)Nc1ccccc1)NO [Vorinostat, suberoylanilide hydroxamic acid] |  |  |  |  | IC50 ([6]; read-out: Liver extract B61 HDAC1 IC50): 1030 ± 201 nM; cellular potency for HDAC6 vs HDAC1 (higher for HDAC6) ([5]; tubulin acetylation vs H3 acetylation): 10 fold |
